Measurements published in patent publication US12458702B2 (NATIONAL TAIWAN UNIVERSITY, priority 2022, dated 2025).
“Also recorded” adds a separate entry of the source. Where two headings read alike, the source gives them in different places.

Columns and labels:
[1] = tested on: CRC cell lines HCT-116 and HT-29; assay: Cytotoxicity against CRC cell lines, summary over both lines (SRB assay); format: cell-based, human; conditions: for cytotoxicity against CRC cell lines, in words: HCT-116 and HT-29, with or without GSH; for IC50: read-out: IC50 in CRC cells
Protocol: (§1) The fraction of cell survival was calculated as follows. Survival fraction=(OD treated−blank)/(OD control−blank). […] Each experiment was repeated three times.

HT-29 = assay: Cytotoxicity by SRB assay in HT-29 cells
Protocol: Cancer cell lines were obtained from ATCC unless otherwise noted. HT-29 and HCT-116 cells were cultured in Dulbecco's Modified Eagle Medium (DMEM, Thermo Fisher Scientific) with 10% fetal bovine serum (FBS, Thermo Fisher Scientific) and 1% antibiotic-antimycotic (Thermo Fisher Scientific).
Briefly, CRC cells were seeded at a density of 5×10^3 cells/well in 96-well microtiter plates (100 μL/well), separated into two groups with or without GSH. After incubation for 24 hours, the culture medium was replaced by fresh medium (100 μL). […] After incubation, 10% cold trichloroacetic acid was gently added to each well and incubated at 4° C. for 1 h. The medium was removed, carefully washed with water, and dried at room temperature. […] The optical density (O.D.) was measured at 510 nm with Multi-Mode Microplate Reader (SpectraMax Paradigm, Beckman Coulter, U.S.). The fraction of cell survival was calculated as follows. Survival fraction=(OD treated−blank)/(OD control−blank). […] Each experiment was repeated three times.

HCT-116 = assay: Cytotoxicity by SRB assay in HCT-116 cells; format: cell-based, human
Protocol: as §1

[2] = Stability and drug release in GSH (RP-HPLC); format: in vitro ADME
Protocol: […] After incubation for the indicated time, samples were centrifuged to collect the clear supernatant and stored at −30° C. until analysis. RP-HPLC injections were carried out at the specified conditions, and the area of peak was integrated for further calculation.

[3] = Human plasma stability (RP-HPLC); format: in vitro ADME; conditions: 95% human plasma, 37° C.
Protocol: To access human plasma stability, synthesized conjugates were prepared in 95% human plasma. […] The mixture was centrifuged at 13,000 rpm for 5 min. […] For compounds 30 and 31, they were dissolved in DMA and added GSH (11.2 mM or 11.2 μM) solution which was prepared in sodium acetate buffer (10 mM, pH 5.0) in the ratio of 50/40 (v/v, drug in DMA/GSH solution) for final GSH of 5 mM or 5 μM in pH 7.0, respectively. After incubation for the indicated time, samples were centrifuged to collect the clear supernatant and stored at −30° C. until analysis. RP-HPLC injections were carried out at the specified conditions, and the area of peak was integrated for further calculation.

[4] = tested on: orthotopic CRC mice model; assay: Orthotopic AOM/DSS-induced CRC mice model, tumor area; format: in vivo, BALB/c mice; conditions: SN-38 series; i.v. once every two days for two weeks; 40 mg/kg vs irinotecan 40 mg/kg
Protocol: Azoxymethane (AOM)-induced murine CRC model was applied to model human CRC. BALB/c mice (6 weeks of age, male) were intraperitoneally (i.p.) injected once every two weeks with AOM (10 mg/kg body weight) or the PBS vehicle. Seven days after each AOM injection, 2% dextran sulfate sodium (DSS) was given in the drinking water for four days, followed by 3 days of regular water. This cycle was repeated three times. The mice were randomly divided into eight groups (n=5), on day 60 after the first AOM treatment. […] Tumor volumes and body weights were recorded at sacrifice. The tumors were counted under a dissecting microscope, and the area covered by tumors was measured by imaging software (AxioVision LE 4.8.2.0).

[5] = Body weight changes in the CRC mice model; format: in vivo, BALB/c mice; conditions: during treatment in CRC mice model
Protocol: Azoxymethane (AOM)-induced murine CRC model was applied to model human CRC. BALB/c mice (6 weeks of age, male) were intraperitoneally (i.p.) injected once every two weeks with AOM (10 mg/kg body weight) or the PBS vehicle. Seven days after each AOM injection, 2% dextran sulfate sodium (DSS) was given in the drinking water for four days, followed by 3 days of regular water. This cycle was repeated three times. The mice were randomly divided into eight groups (n=5), on day 60 after the first AOM treatment. […] Irinotecan (20 mg/kg), compound 31 (20 mg/kg), and irinotecan+compound 17 (20 mg/kg of irinotecan and 14 mg/kg of compound 17) were injected i.p. q.o.d for two weeks. […] Tumor volumes and body weights were recorded at sacrifice. The tumors were counted under a dissecting microscope, and the area covered by tumors was measured by imaging software (AxioVision LE 4.8.2.0).

[6] = Homo sapiens, HT-29, 48 h, read-out: IC50 HT-29 5 mM GSH
[7] = Homo sapiens, HT-29, 48 h, read-out: IC50 HT-29 w/o GSH
[8] = Homo sapiens, HCT-116, read-out: IC50 HCT-116 5 mM GSH, 48 h, 5 mM GSH
[9] = Homo sapiens, HCT-116, 48 h, w/o GSH, read-out: IC50 HCT-116 w/o GSH
[10] = Homo sapiens, HT-29, 48 h, read-out: IC50 HT-29
[11] = Homo sapiens, HCT-116, read-out: IC50 HCT-116 5 mM GSH, 72 h, prepared in DMA, 5 mM GSH
[12] = Homo sapiens, HCT-116, 48 h, prepared in DMSO, read-out: IC50 HCT-116
[13] = Homo sapiens, HCT-116, 72 h, prepared in DMA, w/o GSH, read-out: IC50 HCT-116 w/o GSH
[14] = read-out: IC50 HT-29 5 mM GSH, 48 h, prepared in DMA, 5 mM GSH
[15] = read-out: IC50 HT-29 w/o GSH, 48 h, prepared in DMA, w/o GSH
[16] = 72 h, prepared in DMA, w/o GSH, read-out: IC50 HCT-116 w/o GSH
[17] = read-out: IC50 HCT-116 5 mM GSH, 72 h, prepared in DMA, 5 mM GSH
[18] = read-out: IC50 HT-29, 48 h, prepared in DMSO

Structure (SMILES)	cytotoxicity against CRC cell lines, in words [1]	IC50 (HT-29; [6]) [µM]	IC50 (HT-29; [7]) [µM]	IC50 (HCT-116; [8]) [µM]	IC50 (HCT-116; [9]) [µM]	IC50 (HT-29; [10]) [µM]	IC50 (HCT-116; [11]) [µM]	IC50 (HCT-116; [12]) [µM]	IC50 (HCT-116; [13]) [µM]	also measured
O=C(CCCCCN1C(=O)CC(SCCOCCOCCOc2cc(O)c(C(=O)CCc3ccc(O)cc3)c(O[C@@H]3O[C@H](CO)[C@@H](O)C(O)[C@H]3O)c2)C1=O)OCn1cc(F)c(=O)[nH]c1=O (stereo partly drawn) [Compound 4, (5-Fluoro-2,4-dioxo-3,4-dihydropyrimidin-1(2H)-yl)methyl 6-(3-((2-(2-(2-(3-hydroxy-4-(3-(4-hydroxyphenyl)propanoyl)-5-(((2S,3R,5S,6R)-3,4,5-trihydroxy-6-(hydroxymethyl)tetrahydro-2H-pyran-2-yl)oxy)phenoxy)ethoxy)ethoxy)ethyl)thio)-2,5-dioxopyrrolidin-1-yl)hexanoate]	poorly cytotoxic	93.6 ± 9.4	> 100	> 100	97.4 ± 20.3					
O=C(CCCCCN1C(=O)CC(SCCOCCOCCOc2cc(O)c(C(=O)CCc3ccc(O)cc3)c(O)c2)C1=O)OCn1cc(F)c(=O)[nH]c1=O (centres unmarked) [Compound 5, (5-Fluoro-2,4-dioxo-3,4-dihydropyrimidin-1(2H)-yl)methyl 6-(3-((2-(2-(2-(3,5-dihydroxy-4-(3-(4-hydroxyphenyl)propanoyl)phenoxy)ethoxy)ethoxy)ethyl)thio)-2,5-dioxopyrrolidin-1-yl)hexanoate]	poorly cytotoxic	86.9 ± 2.9	43.7 ± 5	82.8 ± 4.18	75 ± 13.7					release of 5-FU, in words ([2]; 5 mM GSH, after 48 h): Little 5-FU was released; half-life in human plasma [3]: 48 min
O=C(CCCSSCCOCCOCCOc1cc(O)c(C(=O)CCc2ccc(O)cc2)c(O[C@@H]2O[C@H](CO)[C@@H](O)C(O)[C@H]2O)c1)OCn1cc(F)c(=O)[nH]c1=O (stereo partly drawn) [Compound 6, (5-fluoro-2,4-dioxo-3,4-dihydropyrimidin-1(2H)-yl)methyl 4-((2-(2-(2-(3-hydroxy-4-(3-(4-hydroxyphenyl)propanoyl)-5-(((2S,3R,5S,6R)-3,4,5-trihydroxy-6-(hydroxymethyl)tetrahydro-2H-pyran-2-yl)oxy)phenoxy)ethoxy)ethoxy)ethyl)disulfanyl)butanoate]		8 ± 0.52	59.8 ± 7.93	23.8	54.9					half-life at 2.5 mM ([2]; PBS containing GSH, pH 7.4, highly reductive environments, read-out: half-lives in highly reductive environments): < 300 min
O=C(CCc1cn(CCOCCOCCOc2cc(O)c(C(=O)CCc3ccc(O)cc3)c(O[C@@H]3O[C@H](CO)[C@@H](O)C(O)[C@H]3O)c2)nn1)OCn1cc(F)c(=O)[nH]c1=O (stereo partly drawn) [Compound 8, (5-Fluoro-2,4-dioxo-3,4-dihydropyrimidin-1(2H)-yl)methyl 3-(1-(2-(2-(2-(3-hydroxy-4-(3-(4-hydroxyphenyl)propanoyl)-5-(((2S,3R,5S,6R)-3,4,5-trihydroxy-6-(hydroxymethyl)tetrahydro-2H-pyran-2-yl)oxy)phenoxy)ethoxy)ethoxy)ethyl)-1H-1,2,3-triazol-4-yl)propanoate]	poorly cytotoxic		> 100		> 100					
O=C(CCc1ccc(O)cc1)c1c(O)cc(OCCOCCOCCS)cc1O [Compound 17, 1-(2,6-Dihydroxy-4-(2-(2-(2-mercaptoethoxy)ethoxy)ethoxy)phenyl)-3-(4-hydroxyphenyl)propan-1-one]		24.2 ± 0.4	29.1 ± 6.14	15.9 ± 0.89	15.5 ± 0.72	29.1 ± 6.14	15.9 ± 0.89	15.5 ± 0.72	15.5 ± 0.72	IC50 ([1]; Homo sapiens, HCT-116 and HT-29, over Tables 1 to 3): 15 to 30 µM
CCc1c2c(nc3ccc(OC(=O)OCCSSCCOCCOCCOc4ccc(O)c(C(=O)CCc5ccc(O)cc5)c4O[C@@H]4O[C@H](CO)[C@@H](O)[C@H](O)[C@H]4O)cc13)-c1cc3c(c(=O)n1C2)COC(=O)[C@]3(O)CC [Compound 30, (S)-4,11-diethyl-4-hydroxy-3,14-dioxo-3,4,12,14-tetrahydro-1H-pyrano[3′,4′:6,7]indolizino[1,2-b]quinolin-9-yl(2-((2-(2-(2-(4-hydroxy-3-(3-(4-hydroxyphenyl)propanoyl)-2-(((2S,3R,4S,5S,6R)-3,4,5-trihydroxy-6-(hydroxymethyl)tetrahydro-2H)pyran-2-yl)oxy)phenoxy)ethoxy)ethoxy)ethyl)disulfanyl)ethyl) carbonate]	less or similar cytotoxicity									release rate of SN-38 ([2]; 5 mM GSH): about 60%; IC50 (HT-29; [14]): 0.0301 ± 0.0026 µM; IC50 (HT-29; [15]): 0.0396 ± 0.00345 µM; IC50 (HCT-116; [16]): 0.00244 ± 0.00017 µM; IC50 (HCT-116; [17]): 0.00257 ± 0.00013 µM; half-life in human plasma [3]: 20 min
CCc1c2c(nc3ccc(OCc4ccc(NC(=O)[C@H](CCCNC(N)=O)NC(=O)[C@@H](NC(=O)CCCCN5C(=O)CC(SCCOCCOCCOc6cc(O)c(C(=O)CCc7ccc(O)cc7)c(O)c6)C5=O)C(C)C)cc4)cc13)-c1cc3c(c(=O)n1C2)COC(=O)[C@]3(O)CC (some centres unmarked) [Compound 38]										anti-tumor efficacy (tumor area), in words [4]: good therapeutic efficacy than irinotecan; also recorded: better anti-tumor efficacy than irinotecan; body weight change, in words [5]: did not decrease the body weight; also recorded: no significant change in the body weight; cytotoxicity in HT-29 cell line, in words (HT-29): less sensitive; IC50 (HT-29; [18]): > 100 µM
O=C(CCc1ccc(O)cc1)c1c(O)cc(O)cc1O [Phloretin (3), phloretin, reference compound]		> 100	> 100			> 100	77.6 ± 3.42	> 100	> 100	
O=C(CCc1ccc(O)cc1)c1c(O)cc(O)cc1O[C@@H]1O[C@H](CO)[C@@H](O)[C@H](O)[C@H]1O [Phlorizin (2), phlorizin, reference compound]		> 100	> 100			> 100	> 100	> 100	> 100	
CCc1c2c(nc3ccc(O)cc13)-c1cc3c(c(=O)n1C2)COC(=O)[C@]3(O)CC [SN-38 (28), SN-38, reference compound]										IC50 ([1]; HCT-116 and HT-29, Tables 2 and 3): 0.002 to 0.43 µM; IC50 (HT-29; [14]): 0.0113 ± 0.00073 µM; IC50 (HT-29; [18]): 0.43 ± 1e-05 µM; IC50 (HT-29; [15]): 0.0134 ± 0.0004 µM; IC50 (HCT-116; 48 h, prepared in DMSO, read-out: IC50 HCT-116): 0.0549 ± 0.00386 µM; IC50 (HCT-116; [16]): 0.00237 ± 4e-05 µM; IC50 (HCT-116; [17]): 0.00288 ± 8e-05 µM
